In publication PMC6364133, “Selectivity of Dietary Phenolics for Inhibition of Human Monoamine Oxidases A and B” (BioMed Research International, 2019):
Where two headings read alike, the source gives them in different places.

Columns and labels:
MAO-A [1] = molecular target: T1, MAO-A (Homo sapiens, UniProt P21397); assay: MAO-A inhibition, kynuramine to 4-hydroxyquinoline, HPLC-fluorescence; type: biochemical; conditions: for inhibition of MAO-A activity in screening: highest expected luminal concentration: curcumin 140, guaiacol 435, isoeugenol 110, pterostilbene 270, resveratrol 94, zingerone 51 µM, p < 0.05 vs control; for IC50 / MAO-A Hill coefficient / MAO-A inhibition (Figure 6): kynuramine 10 µM, 15 min; for IC50 / MAO-A Hill coefficient: MAO-A 0.01 mg/mL; for Selectivity Index: ratio of MAO-B IC50/MAO-A IC50; for MAO-A inhibition (Figure 6): 15 µM test compound (clorgyline 1 µM, selegiline 0.5 µM)
T1 construct: purchased BD Biosciences (San Jose, CA) or Corning Discovery Labware (Woburn, MA)
T1 sequence (P21397 1-527): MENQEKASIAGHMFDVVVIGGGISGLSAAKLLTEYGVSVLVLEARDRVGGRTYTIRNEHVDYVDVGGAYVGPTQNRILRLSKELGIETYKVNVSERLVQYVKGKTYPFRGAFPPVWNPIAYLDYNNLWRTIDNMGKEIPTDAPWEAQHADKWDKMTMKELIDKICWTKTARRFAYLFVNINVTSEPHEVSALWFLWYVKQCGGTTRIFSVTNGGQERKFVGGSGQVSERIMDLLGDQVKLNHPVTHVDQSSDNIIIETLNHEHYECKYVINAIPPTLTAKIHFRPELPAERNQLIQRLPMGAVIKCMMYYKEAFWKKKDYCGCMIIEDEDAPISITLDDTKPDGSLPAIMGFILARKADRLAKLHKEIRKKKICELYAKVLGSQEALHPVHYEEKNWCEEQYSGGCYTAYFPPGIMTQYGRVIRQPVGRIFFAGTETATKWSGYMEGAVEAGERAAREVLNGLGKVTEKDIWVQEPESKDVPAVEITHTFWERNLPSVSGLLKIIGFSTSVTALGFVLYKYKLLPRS

MAO-B [2] = molecular target: T2, MAO-B (Homo sapiens, UniProt P27338); assay: MAO-B inhibition, kynuramine to 4-hydroxyquinoline, HPLC-fluorescence; type: biochemical
T2 construct: purchased BD Biosciences (San Jose, CA) or Corning Discovery Labware (Woburn, MA)
T2 sequence (P27338 1-520): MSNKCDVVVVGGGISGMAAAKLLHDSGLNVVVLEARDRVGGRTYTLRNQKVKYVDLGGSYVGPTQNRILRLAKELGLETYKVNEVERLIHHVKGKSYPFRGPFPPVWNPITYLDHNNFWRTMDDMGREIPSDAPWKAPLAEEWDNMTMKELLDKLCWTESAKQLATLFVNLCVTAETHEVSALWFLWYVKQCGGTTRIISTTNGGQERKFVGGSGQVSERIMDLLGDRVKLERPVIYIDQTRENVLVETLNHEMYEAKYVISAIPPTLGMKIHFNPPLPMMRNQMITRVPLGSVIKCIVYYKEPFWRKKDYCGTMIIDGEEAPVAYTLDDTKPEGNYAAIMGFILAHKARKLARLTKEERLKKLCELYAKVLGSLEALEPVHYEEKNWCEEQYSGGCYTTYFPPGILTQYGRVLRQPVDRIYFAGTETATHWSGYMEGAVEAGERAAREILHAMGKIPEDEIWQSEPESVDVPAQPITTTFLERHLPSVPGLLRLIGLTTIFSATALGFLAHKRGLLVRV

[3] = parameters: method as in earlier work; conditions: cited from earlier work
human MAO-B = tested on: human MAO-B; parameters: method as in PMID 15095350; conditions: cited from earlier work
MAO-A [4] = molecular target: T1, MAO-A; assay: Kynuramine oxidative deamination kinetics (saturation, optimization) with MAO-A; type: biochemical; conditions: mean ± SEM
Protocol: (§1) The optimized incubation time and human recombinant MAO concentration were selected in the linear range from the time-dependent and MAO concentration-dependent studies (Supplemental Data). Briefly, samples were prepared in potassium phosphate buffer (100 mM, pH 7.4) with a final concentration of MAO in the reaction solution of 0.01 mg/mL, incubated at 37°C for 15 min. Saturation of kynuramine metabolism with MAO-A/B was carried out at concentrations of 2, 5, 10, 25, 50, 100, 250, 500 μM. The enzymatic reactions (200μL) were stopped by 2 N NaOH (75 μL) followed with 70% perchloric acid (25 μL). The samples were vortexed and centrifuged for 5 min at 10,000×g. The supernatant was analyzed by HPLC as described above.
(§2) GraphPad Prism 5 was applied to fit a Michaelis-Menten model to the data to obtain the Km values in the saturation experiments. In the screening experiments, significant differences between control and treated group were determined by a one-way ANOVA followed by Dunnett's posttest (p < 0.05). […] The maximum single doses are from published sources. The relevant GI concentration is the lesser of either solubility or the concentration after a single dose.
(§3) Kynuramine (2 to 500 μM) was incubated in 200 μL potassium phosphate buffer (100 mM, pH 7.4) for 15 min with MAO-A or MAO-B (0.01 mg/mL). Michaelis-Menten model was used to fit the data by GraphPad Prism 5. The experiments were conducted 3 times in triplicate. Single representative experiments are shown. […]
(§4) Table S7. Sample Processing Stability for 4-Hydroxyquinoline […]
(§5) B. Optimization of Enzyme Incubations […]
(§6) Kynuramine (10 µM) was incubated with MAO-A (0.01 mg/mL) in 200 µL potassium phosphate buffer (100 mM, pH 7.4) for 10, 20, 30, 40, and 60 min. The formation of 4-hydroxyquinoline was analyzed after the enzymatic reaction. […]

MAO-B [5] = molecular target: T2, MAO-B; assay: Kynuramine oxidative deamination kinetics (saturation, optimization) with MAO-B; type: biochemical; conditions: mean ± SEM
Protocol: as §1, §2, §3, §4, §5, §6

MAO-A [6] = conditions: cited from earlier work
human MAO-A = tested on: human MAO-A; parameters: method as in PMID 15095350; conditions: cited from earlier work
MAO-B [7] = conditions: cited from earlier work
MAO-A in rat brain = conditions: cited from earlier work
MAO-B in rat brain = molecular target: MAO-B in rat brain; parameters: method as in PMID 15120460; conditions: cited from earlier work
MAO-A in mouse brain = conditions: after p.o. administration; cited from earlier work
MAO-B in mouse brain = conditions: after p.o. administration; cited from earlier work
MAO-A [8] = molecular target: T1, MAO-A; assay: Inhibition mechanism studies (competition, time dependence) with MAO-A; type: biochemical; conditions: 1 μM, preincubation 0-60 min, then kynuramine 20 μM
[9] = highest expected luminal concentration: curcumin 140, guaiacol 435, isoeugenol 110, pterostilbene 270, resveratrol 94, zingerone 51 µM, p < 0.05 vs control
[10] = kynuramine 10 µM, MAO-B 0.01 mg/mL, 15 min
[11] = 15 µM test compound (clorgyline 1 µM, selegiline 0.5 µM), kynuramine 10 µM, 15 min

COc1ccccc1O [guaiacol]
inhibition of MAO-A activity in screening (MAO-A [1]): significantly inhibited
IC50 (MAO-A [1]): 131 ± 6 µM
Selectivity Index (MAO-A [1]): 2.46
inhibition of MAO-B activity in screening (MAO-B [2]; [9]): significantly inhibited
IC50 (MAO-B [2]; [10]): 322 ± 27 µM

COc1cc(/C=C/c2ccc(O[C@@H]3O[C@H](CO)[C@@H](O)[C@H](O)[C@H]3O)cc2)cc(OC)c1 [pterostilbene 4'-glucoside]
MAO-B inhibition (Figure 6) (MAO-B [2]; [11]): failed to inhibit

NCCC(=O)c1ccccc1N [kynuramine]
estimated most basic pKa [3]: 8.4
Km (human MAO-B): 26 µM
rate of 4-hydroxyquinoline formation, time-dependent study, MAO-A (MAO-A [4]; kynuramine 10 µM, MAO-A 0.01 mg/mL, 10-60 min): 3.28 ± 0.09 nmol/mg/min
rate of 4-hydroxyquinoline formation, MAO concentration-dependent study, MAO-A (MAO-A [4]; kynuramine 10 µM, MAO-A 0.003-0.03 mg/mL, 15 min): 3.06 ± 0.03 nmol/mg/min
Vmax, MAO-A (MAO-A [4]; kynuramine 2-500 μM, 15 min): 10.2 ± 0.2 nmol/min/mg
rate of 4-hydroxyquinoline formation, time-dependent study, MAO-B (MAO-B [5]; kynuramine 10 µM, MAO-B 0.01 mg/mL, 10-60 min): 2.70 ± 0.07 nmol/mg/min
rate of 4-hydroxyquinoline formation, MAO concentration-dependent study, MAO-B (MAO-B [5]; kynuramine 10 µM, MAO-B 0.003-0.03 mg/mL, 15 min): 3.66 ± 0.08 nmol/mg/min
Vmax, MAO-B (MAO-B [5]; kynuramine 2-500 μM, 15 min): 7.35 ± 0.69 nmol/min/mg
Km (MAO-A [6]): 44.1 µM
Km (human MAO-A): 42 µM
Km (MAO-B [7]): 90 µM

isoeugenol
inhibition of MAO-A activity in screening (MAO-A [1]): significantly inhibited
MAO-A Hill coefficient (MAO-A [1]): 1.2 ± 0.1
Selectivity Index (MAO-A [1]): 27.4
inhibition of MAO-B activity in screening (MAO-B [2]): significantly inhibited
MAO-B Hill coefficient (MAO-B [2]; [10]): 2.4 ± 0.3

COc1ccc(C(C)=O)c(O)c1 [paeonol]
Ki (MAO-A in rat brain): 51.1 µM
mode of inhibition, MAO-A (MAO-A in rat brain): non-competitive
Ki (MAO-B in rat brain): 38.2 µM
mode of inhibition, MAO-B (MAO-B in rat brain): competitive

Cc1cc(O)c2c(c1)C(=O)c1cc(O)cc(O)c1C2=O [emodin]
Ki (MAO-B in rat brain): 15.1 µM
mode of inhibition, MAO-B (MAO-B in rat brain): mixed mode

COc1cc(/C=C/C(=O)CC(=O)/C=C/c2ccc(O)c(OC)c2)ccc1O [curcumin]
MAO-A inhibition in mouse brain (MAO-A in mouse brain): inhibits
inhibition of MAO-A activity in screening (MAO-A [1]): significantly inhibited
MAO-A Hill coefficient (MAO-A [1]): 2.0 ± 0.4
inhibition of MAO-B activity in screening (MAO-B [2]; [9]): significantly inhibited
MAO-B Hill coefficient (MAO-B [2]; [10]): 1.7 ± 0.1
MAO-B inhibition in mouse brain (MAO-B in mouse brain): inhibits

COc1cc(CCC(C)=O)ccc1O [zingerone]
inhibition of MAO-A activity in screening (MAO-A [1]): only inhibited MAO-A
IC50 (MAO-A [1]): 16.3 ± 1.1 µM
inhibition at 51 µM (MAO-B [2]; 51 µM (GI concentration expected from maximum single dose)): < 10%

OC[C@H]1O[C@@H](Oc2ccc(/C=C/c3cc(O)cc(O)c3)cc2)[C@H](O)[C@@H](O)[C@@H]1O [resveratrol 4'-glucoside]
MAO-A inhibition (Figure 6) (MAO-A [1]): inhibited MAO-A
MAO-B inhibition (Figure 6) (MAO-B [2]; [11]): failed to inhibit

O=c1cc(-c2ccccc2)oc2cc(O)cc(O)c12 [chrysin]
MAO-A inhibition (Figure 6) (MAO-A [1]): inhibited both enzymes
MAO-B inhibition (Figure 6) (MAO-B [2]; [11]): inhibited both enzymes

O=C(/C=C/C=C/c1ccc2c(c1)OCO2)N1CCCCC1 [piperine]
Ki (MAO-A in rat brain): 35.8 µM
mode of inhibition, MAO-A (MAO-A in rat brain): mixed
Ki (MAO-B in rat brain): 79.9 µM
mode of inhibition, MAO-B (MAO-B in rat brain): competitive

O=c1c(O)c(-c2ccc(O)c(O)c2)oc2cc(O)cc(O)c12 [quercetin]
MAO-A inhibition (MAO-A [6]): inhibitor
MAO-B inhibition (MAO-B [7]): inhibitor

Oc1ccnc2ccccc12 [4-hydroxyquinoline]
estimated most acidic pKa [3]: 4.3
estimated most basic pKa [3]: 11.1

N[C@@H]1C[C@H]1c1ccccc1 (racemic) [tranylcypromine]
plateau inhibition, MAO-A (MAO-A [8]): 48%

O=c1c(O)c(-c2ccc(O)cc2)oc2cc(O)cc(O)c12 [kaempferol]
MAO-A inhibition (MAO-A [6]): selective MAO-A inhibitor

OC[C@H]1O[C@@H](Oc2cc(O)cc(/C=C/c3ccc(O)cc3)c2)[C@H](O)[C@@H](O)[C@@H]1O [resveratrol 3-glucoside]
MAO-B inhibition (Figure 6) (MAO-B [2]): failed to inhibit
